One may read the Ki as a dissociation constant, usually derived from enzyme kinetics or from competition with a known ligand. A word on the melting point: it is the temperature, or range, at which the solid turns liquid.

The source of these data is patent publication US20090105292A9, “Glucocorticoid Receptor Modulator Compounds and Methods” (LIGAND PHARMACEUTICALS INCORPORATED, priority 2004, published 2009).

For the first data set, the target named is T1, human glucocorticoid receptor protein (GR) (Homo sapiens, UniProt P04150).
T1 construct: made in house; host or cells: Spodoptera frugiperda Sf21 insect cells (baculovirus)
T1 sequence (P04150 1-777): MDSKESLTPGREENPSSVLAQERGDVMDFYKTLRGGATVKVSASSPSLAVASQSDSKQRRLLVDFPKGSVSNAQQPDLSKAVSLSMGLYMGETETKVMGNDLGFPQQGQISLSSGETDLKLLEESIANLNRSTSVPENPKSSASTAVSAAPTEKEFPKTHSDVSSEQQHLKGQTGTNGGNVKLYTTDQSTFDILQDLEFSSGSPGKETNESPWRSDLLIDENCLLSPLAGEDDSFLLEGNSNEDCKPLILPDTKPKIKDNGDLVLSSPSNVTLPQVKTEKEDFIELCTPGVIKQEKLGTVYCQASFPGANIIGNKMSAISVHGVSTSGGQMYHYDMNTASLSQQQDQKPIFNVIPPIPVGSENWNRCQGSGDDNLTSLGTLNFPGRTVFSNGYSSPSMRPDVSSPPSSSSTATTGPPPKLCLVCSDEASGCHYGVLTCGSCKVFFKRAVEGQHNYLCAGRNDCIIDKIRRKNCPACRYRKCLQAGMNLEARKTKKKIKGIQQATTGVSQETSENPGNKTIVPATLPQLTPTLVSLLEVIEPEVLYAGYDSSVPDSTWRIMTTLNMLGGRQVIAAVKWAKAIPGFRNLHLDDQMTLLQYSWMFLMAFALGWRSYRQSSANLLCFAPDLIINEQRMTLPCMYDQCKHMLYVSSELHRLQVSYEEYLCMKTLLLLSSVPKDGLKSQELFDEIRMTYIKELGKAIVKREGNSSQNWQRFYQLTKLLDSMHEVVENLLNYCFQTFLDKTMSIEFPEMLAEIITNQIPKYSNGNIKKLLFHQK
The experiment in a line: Glucocorticoid receptor binding assay ([3H]dexamethasone competition, GR lysate).
Details: not given
On the procedure:
A baculovirus expression plasmid containing cDNA encoding the human glucocorticoid receptor protein (GR) was prepared using standard techniques. […] That expression plasmid was co-transfected together with wild type Autographa californica multiple nuclear polyhedrosis virus DNA into Spodopter frugiperda-21 (Sf-21) cells to generate recombinant virus containing GR cDNA. See e.g., O'Reilly, D. R., Miller, L. K., Luckow, V. A., Regulation of expression of a baculovirus ecdysteroid UDP glucosyltransferase gene. […] That recombinant virus containing GR cDNA was collected.
A suspension culture of uninfected Sf21 cells was grown to a density of 1.2×10^6 cells/ml and then infected with the recombinant virus containing GR cDNA at a multiplicity of infection of 2. Those infected Sf21 cells were incubated for 48 hours and then collected by centrifugation at 1000×g for 10 minutes at 4° C. The resulting cell pellets were resuspended in lysis buffer (50 mM Potassium Phosphate buffer, pH 7.0, 10 mM Monothioglycerol, 5 mM DTT, 20 mM Sodium Molybdate, 1 mM PMSF, 1 μg/mL aprotinin, and 10 μg/mL leupeptin) and incubated for 15 minutes on ice. Those resuspended cell pellets were homogenized using a Dounce homogenizer and a B pestle. A volume of 2 M KCl was added to the homogenized cell pellets to a final concentration of 0.4 M. The resulting GR lysates were centrifuged at 100,000×g for 60 min at 4° C. and stored for use in binding assays.
Binding assay samples were prepared in separate mini-tubes in a 96-well format at 4° C. Each binding assay sample was prepared in a volume of 250 μL of Assay Buffer (10% glycerol, 25 mM sodium phosphate, 10 mM potassium fluoride, 10 mM sodium molybdate, 0.25 mM CHAPS, 2 mM DTT and 1 mM EDTA, (adjusted to pH 7.5)) containing 50 μg of GR lysate; 2-4 nM of [^3H]dexamethasone at 84 Ci/mmol; and either a reference compound or a test compound. […] Each reference compound and test compound was assayed at varying concentrations, ranging from 0 to 10^−5 M. Each concentration of each reference compound and each test compound was assayed in triplicate. The assay samples were incubated for 16 hours at 4° C.
The assay samples were then centrifuged and the supernatants were discarded. The resulting pellets were washed twice with assay buffer lacking DTT. Radioactivity in counts per minute (CPM) of each washed pellet was determined by liquid scintillation counter (MicroBeta™, Wallach).
Specific binding for a particular sample was calculated using the equation: (Sample CPM)−(Average Non-specific CPM)
Average Non-specific CPM was defined as the amount of radioactivity from samples containing an excess (i.e. 1000 nM) of unlabeled dexamethasone. […] Ki values were determined using the Cheng-Prusoff equation using a previously determined Kd value for dexamethasone: Ki=IC50/(1+[L]/Kd)
[L]=concentration of labeled dexamethasone
Kd=dissociation constant of labeled dexamethasone
With `COc1c(O)ccc2c1-c1ccc3c(c1/C(=C/c1oc(C)cc1C(=O)N(C)C)O2)C(C)=CC(C)(C)N3` [Compound 146, (Z)-5-(2′-(3′-dimethylaminocarbonyl-5H-methylfuranylmethylidene))-1,2-dihydro-9-hydroxy-10-methoxy-2,2,4-trimethyl-5H-chromeno[3,4-f]quinoline], the Ki was greater than 3 nM.
On the same count and under the same terms, under `COc1c(O)ccc2c1-c1ccc3c(c1/C(=C/c1sccc1C(=O)N1CCC(=O)CC1)O2)C(C)=CC(C)(C)N3` [Compound 252, (Z)-5-(2′-(3′-(4″-Oxo-piperidinecarbonyl)thienylmethylidene))1,2-dihydro-9-hydroxy-10-methoxy-2,2,4-trimethyl-5H-chromeno[3,4-f]quinoline] stands 1 to 2 nM.

The data set is the same for the next values; noted with them: competition with 2-4 nM [3H]dexamethasone, 16 hours at 4° C., Cheng-Prusoff; read-out: Ki.
`CCN(C)C(=O)c1ccsc1/C=C1\Oc2ccc(O)c(OC)c2-c2ccc3c(c21)C(C)=CC(C)(C)N3` [Compound 134, (Z)-5-(2′-(3′-(ethylmethylaminocarbonyl)thienylmethylidene))-1,2-dihydro-9-hydroxy-10-methoxy-2,2,4-trimethyl-5H-chromeno[3,4-f]quinoline]: the Ki was less than 1 nM.
On the same count and under the same terms, under `COCCN(CCOC)C(=O)c1ccsc1/C=C1\Oc2ccc(O)c(OC)c2-c2ccc3c(c21)C(C)=CC(C)(C)N3` [Compound 138, (Z)-5-(2′-(3′-(di(methoxyethyl)aminocarbonyl)thienylmethylidene))-1,2-dihydro-9-hydroxy-10-methoxy-2,2,4-trimethyl-5H-chromeno[3,4-f]quinoline] stands 1 to 2 nM.
Consider `COc1c(O)ccc2c1-c1ccc3c(c1/C(=C/c1ccc(C(=O)N4CCCC4)s1)O2)C(C)=CC(C)(C)N3` [Compound 143, (Z)-5-(2′-(5′-(pyrrolidinocarbonyl)thienylmethylidene))-1,2-dihydro-9-hydroxy-10-methoxy-2,2,4-trimethyl-5H-chromeno[3,4-f]quinoline], for which the Ki is 1 to 2 nM.
Same read-out and setting: under `COc1c(O)ccc2c1-c1ccc3c(c1/C(=C/c1oc(C)cc1C(=O)N1CCCCC1)O2)C(C)=CC(C)(C)N3` [Compound 151, (Z)-5-(2′-(5′-Methyl-3′-(piperidinecarbonyl)furanylmethylidene))1,2-dihydro-9-hydroxy-10-methoxy-2,2,4-trimethyl-5H-chromeno[3,4-f]quinoline] stands 1 to 2 nM; under `COc1c(O)ccc2c1-c1ccc3c(c1/C(=C/c1cccc(C)c1C(=O)N1CCCC1)O2)C(C)=CC(C)(C)N3` [Compound 154, (Z)-5-(3′-Methyl-2′-(pyrrolidinecarbonyl)benzylidene)1,2-dihydro-9-hydroxy-10-methoxy-2,2,4-trimethyl-5H-chromeno[3,4-f]quinoline], greater than 3 nM.
Still for that read-out and setting: under `COc1c(O)ccc2c1-c1ccc3c(c1/C(=C/c1sccc1CO)O2)C(C)=CC(C)(C)N3` [Compound 157, (Z)-5-(2′-(3′-Hydroxymethylthienylmethylidene))1,2-dihydro-9-hydroxy-10-methoxy-2,2,4-trimethyl-5H-chromeno[3,4-f]quinoline] stands less than 1 nM.
Same read-out and setting: under `COc1c(O)ccc2c1-c1ccc3c(c1/C(=C/c1ccccc1CO)O2)C(C)=CC(C)(C)N3` [Compound 159, (Z)-5-(2′-Hydroxymethylbenzylidene)1,2-dihydro-9-hydroxy-10-methoxy-2,2,4-trimethyl-5H-chromeno[3,4-f]quinoline] stands 1 to 2 nM; under `COc1c(O)ccc2c1-c1ccc3c(c1/C(=C/c1sccc1CN(C)C)O2)C(C)=CC(C)(C)N3` [Compound 166, (Z)-5-(2′-(3′-(Dimethylaminomethyl)thienylmethylidene))1,2-dihydro-9-hydroxy-10-methoxy-2,2,4-trimethyl-5H-chromeno[3,4-f]quinoline], 2 to 3 nM; under `C=CCO/N=C(\C)c1ccsc1/C=C1\Oc2ccc(O)c(OC)c2-c2ccc3c(c21)C(C)=CC(C)(C)N3` [Compound 178, (Z)-5-(2′-(3′-((E)-1″-Allyloxyiminoethyl)thienylmethylidene))1,2-dihydro-9-hydroxy-10-methoxy-2,2,4-trimethyl-5H-chromeno[3,4-f]quinoline], 1 to 2 nM.
Consider `C=CCO/N=C(/C)c1ccsc1/C=C1\Oc2ccc(O)c(OC)c2-c2ccc3c(c21)C(C)=CC(C)(C)N3` [Compound 179, (Z)-5-(2′-(3′-((Z)-1″-Allyloxyiminoethyl)thienylmethylidene))1,2-dihydro-9-hydroxy-10-methoxy-2,2,4-trimethyl-5H-chromeno[3,4-f]quinoline], for which the Ki was in the range of 1 to 2 nM.
Consider `COCc1ccsc1/C=C1\Oc2ccc(O)c(OC)c2-c2ccc3c(c21)C(C)=CC(C)(C)N3` [Compound 193, (Z)-5-(2′-(3′-Methoxymethylthienylmethylidene))1,2-dihydro-9-hydroxy-10-methoxy-2,2,4-trimethyl-5H-chromeno[3,4-f]quinoline], for which the Ki lay in the range of 1 to 2 nM.
Still for that read-out and setting: next, `COc1c(O)ccc2c1-c1ccc3c(c1/C(=C/c1sccc1C(=O)c1ccsc1)O2)C(C)=CC(C)(C)N3` [Compound 215, (Z)-5-(2′-(3′-(Thien-3″-ylcarbonyl)thienylmethylidene))1,2-dihydro-9-hydroxy-10-methoxy-2,2,4-trimethyl-5H-chromeno[3,4-f]quinoline]: 1 to 2 nM; `COc1c(O)ccc2c1-c1ccc3c(c1/C(=C/c1sccc1CNC1CC1)O2)C(C)=CC(C)(C)N3` [Compound 222, (Z)-5-(2′-(3′-(Cyclopropylaminomethyl)thienylmethylidene))1,2-dihydro-9-hydroxy-10-methoxy-2,2,4-trimethyl-5H-chromeno[3,4-f]quinoline]: 2 to 3 nM.
In the case of `CC#CCOCc1ccsc1/C=C1\Oc2ccc(O)c(OC)c2-c2ccc3c(c21)C(C)=CC(C)(C)N3` [Compound 237, (Z)-5-(2′-(3′-(But-2″-ynloxymethyl)thienylmethylidene))1,2-dihydro-9-hydroxy-10-methoxy-2,2,4-trimethyl-5H-chromeno[3,4-f]quinoline], the Ki fell in the range of 1 to 2 nM.
Still for that read-out and setting: next, `CCNC(=O)c1ccsc1/C=C1\Oc2ccc(O)c(OC)c2-c2ccc3c(c21)C(C)=CC(C)(C)N3` [Compound 249, (Z)-5-(2′-(3′-Ethylcarbamoylthienylmethylidene))1,2-dihydro-9-hydroxy-10-methoxy-2,2,4-trimethyl-5H-chromeno[3,4-f]quinoline]: 1 to 2 nM.

Tested on in a further data set: not given
Assay: not given
Details: not given
Consider `COc1c(O)ccc2c1-c1ccc3c(c1/C(=C/c1sccc1C(C)=O)O2)C(C)=CC(C)(C)N3`, for which the melting point lay within 222 to 224 °C.
